{
  "source": "patent US7153886B2",
  "about": "“Method for treatment of peripheral inflammation of a loop ileal artificial anus” (Tanabe Seiyaku Co., Ltd., priority 1999, dated 2006)",
  "key": {"[1]": {"test_system": "left-sided colon ulcerative colitis", "assay": "Clinical effects in ulcerative colitis (Experiments 5-7)", "assay_type": "in vivo, human patient", "description": "The patient was a person, whose illness was diagnosed as left-sided colon ulcerative colitis. The patient was medicated with mesalazine and a steroid, and treated with leukocytapheresis, but the rectal lesion was remained, and the symptoms were not improved any further. The inflammation was scored as Matts Grade 3 (Quarterly Journal of Medicine, New Series, No. 120, October 1961), and it was so frail that it bled when the endoscopic examination was carried out.\n(§1) Ecabet sodium was administered to the patient mentioned above. That is, Ecabet sodium-containing granules (1.5 g) were pulverized in a mortar, suspended in a physiological saline (20 ml), and the resultant was rectally administered through the anus twice a day. After the administration, the inflammation was remitted to Matts Grade 2, and the inflammation area was decreased.\nThe patient was a person, whose illness was diagnosed as left-sided colon ulcerative colitis. The patient was medicated with mesalazine, predonine and a steroid, by which the inflammation was controlled to a degree of disseminated ulcer at the rectum, but further improvement was not obtained.\nas §1, with “ulcer” for “inflammation”, “improved into a red scar.” for “remitted to Matts Grade 2, and the inflammation area was decreased.”\nThe patient was a person, whose illness was diagnosed as left-sided colon ulcerative colitis. The patient was medicated with salazosulfapyridine and predonine, and treated with leukocytapheresis, but the inflammation condition at the rectum could not be controlled, and the bleeding and the melena lasted.\nEcabet sodium was administered to the patient mentioned above. That is, Ecabet sodium-containing granules (1.5 g) were pulverized in a mortar, suspended in a physiological saline (20 ml), and the resultant was rectally administered through the anus twice a day."}, "[2]": {"test_system": "ileum pouchitis accompanying with acute hemorrhagic ulcer", "assay": "Clinical effects in ileum pouchitis", "assay_type": "in vivo, human patient", "details": "Experiment 11, person; granules 1.5 g in water through the anus twice a day for about 4 months", "description": "The patient was a person. During the postoperative treatment, ileum pouchitis accompanying with acute hemorrhagic ulcer appeared at the ileum pouch which was subjected to ileal pouch/anal anastomosis by the operation for ulcerative colitis. Ecabet sodium was administered to the patient mentioned above. That is, Ecabet sodium-containing granules (1.5 g) were suspended in water, and the resultant was injected through the anus twice a day for about 4 months."}, "[3]": {"test_system": "large and small intestine Crohn's disease", "assay": "Clinical effects in a patient of Crohn's disease", "assay_type": "in vivo, human patient", "details": "person; one year after the start of the administration", "description": "The patient was a person, whose illness was diagnosed from the pathological data as large and small intestine Crohn's disease. The exacerbation and the remission were mutually repeated, and the patient was treated with a conventional medicine, but the exacerbation of the anal lesion and the bleeding at the intestine could not be controlled. Although a surgical excision of the lesion was considered, the area of the lesion was so large that it could not be excised, and therefore, a loop ileal artificial anus was installed for administration of Ecabet sodium. Ecabet sodium was administered to the patient mentioned above. That is, Ecabet sodium-containing granules (1.5 g) were pulverized in a mortar, suspended in water, and the resultant was directly administered into the intestine through the artificial anus once a day."}, "[4]": {"test_system": "intestinal mucosal injury induced by intra-intestinal infusion of acetic acid", "assay": "Prophylactic or therapeutic effect on acetic acid-induced intestinal injury", "assay_type": "in vivo", "details": "Fischer rats", "description": "Sulfodehydroabietic acid monosodium salt […] (hereinafter referred to as Ecabet sodium) of the active ingredient of the present invention was previously administered to Fischer rats, and the prophylactic or therapeutic effect thereof on intestinal mucosal injury induced by intra-intestinal infusion of acetic acid was studied. Namely, granules containing Ecabet sodium (0.5 g, trade name: Gastrome granule, containing 1.0 g of Ecabet sodium per 1.5 g, hereinafter simply referred to as Ecabet sodium-containing granules) were suspended in a physiological saline, and the mixture was injected intra-rectally to Fischer rats. One hour thereafter, a 25% acetic acid solution was intra-rectally injected to the rats. Two hours after the administration of acetic acid, the intestine was excised from the rats, and the histopathological changes in the surface of the intestinal inner wall was observed visually and with a microscope, and the injury of the intestinal mucosa was evaluated both macroscopically and histologically. In the control group, the same procedures were repeated except for that a physiological saline was administered instead of a suspension of Ecabet sodium-containing granules in a physiological saline. […] In addition, the degree of the intestine mucosal injury between the physiological saline-treated group and the Ecabet sodium-treated group was scored and compared according to the criteria as mentioned below, which was based on the method for Classification and Evaluation of Macpherson, B. R. et al., Digestion, 17, p. 135–150 (1978). The data is indicated in Table 1. • (1) Scoring criteria of degree of macroscopic injury: [table] • (2) Scoring criteria of degree of histological injury: [table]"}, "[5]": {"test_system": "acute hemorrhagic rectal ulcer", "assay": "Clinical effects in acute hemorrhagic rectal ulcer (Experiments 8-10)", "assay_type": "in vivo, human patient", "description": "The patient was a person, who was hospitalized for treatment of HCV-associated hepatocirrhosis, hepatocellular carcinoma and esophageal varices. After the endoscopic ossification treatment for the esophageal varices was done, an acute hemorrhagic rectal ulcer appeared at whole of the lower rectum. The patient was treated with total parenteral nutrition for 52 days, but the conditions were not improved. Ecabet sodium was administered to the patient mentioned above. That is, Ecabet sodium-containing granules (1.5 g) were suspended in water, and the resultant was injected through the anus twice a day for about 1.5 month. […] The patient was a person, who was hospitalized for treatment of the right thighbone break. During the treatment thereof, an acute hemorrhagic rectal ulcer occurred at whole of the lower rectum. The patient was treated with total parenteral nutrition, but the conditions were not improved. Ecabet sodium was administered to the patient mentioned above. That is, Ecabet sodium-containing granules (1.5 g) were suspended in water, and the resultant was injected through the anus twice a day for about 2.5 months. […] The patient was a person, who was hospitalized for treatment of pancreatic cancer. During the treatment, an acute hemorrhagic rectal ulcer appeared at whole of the lower rectum. Ecabet sodium was administered to the patient mentioned above. That is, Ecabet sodium-containing granules (1.5 g) were suspended in water, and the resultant was injected through the anus twice a day for about 1 month."}, "[6]": {"test_system": "intestinal Behçet's disease", "assay": "Clinical effects in a patient of Behçet's disease", "assay_type": "in vivo, human patient", "details": "person", "description": "The patient was a person, whose illness had been diagnosed as intestinal Behçet's disease accompanying with the multiple ulcerative lesion at the small intestine, and who had been medically treated (i.e., administration of a steroid, etc.). Then, the patient was operated surgically twice to excise the intestine on account of massive melena and regional peritonitis but the lesion of the remaining intestine was exacerbated, and further ileus, melena, and peritonitis symptoms caused by anastomotic recrudescence appeared. In order to excise the injured intestine, the abdomen of the patient was incised, but the injured area was so large that the intestine could not be excised, so that a loop ileal artificial anus was installed for administration of Ecabet sodium.\nEcabet sodium was administered to the patient mentioned above. That is, Ecabet sodium-containing granules (1.5 g) were orally administered twice a day. Further, said granules (1.5 g) were pulverized in a mortar, suspended in water, and the resultant was directly administered into the intestine through the artificial anus twice a day. After the administration of Ecabet sodium, the pain and the melena disappeared in a several days."}, "[7]": {"test_system": "TNBS-induced enteritis; mucosal injury of the intestine induced by acetic acid", "assay": "Effect on TNBS-induced enteritis (followed by acetic acid)", "assay_type": "in vivo, Fischer rats", "description": "Ecabet sodium of the active ingredient of the present invention was administered to Fischer rats to which TNBS was previously intra-intestinally injected to induce chronic enteritis, and further acetic acid was administered to the rats. Prophylactic or therapeutic effect of Ecabet sodium on the mucosal injury of the intestine induced by acetic acid was studied.\nNamely, a solution of TNBS (2,4,6-trinitrobenzenesulfonic acid) in 50% ethanol was injected intra-intestinally to Fischer rats at a dose of 50 mg per 1 kg of the body weight to give the TNBS-induced enteritis. Three weeks thereafter, Ecabet sodium-containing granules (0.5 g) was suspended in a physiological saline, and the mixture was administered intra-rectally to the rats. Thirty minutes thereafter, a 25% acetic acid solution was intra-rectally injected to the rats, and two hours after the acetic acid administration, the intestine was excised from the rats, and the intestinal mucosal injury thereof was scored and evaluated both macroscopically and histologically in the same manner as in Experiment 1 according to the Macpherson's method for Classification and Evaluation. In the control group, the same procedures were repeated except for that a physiological saline was administered instead of a suspension of Ecabet sodium-containing granules in a physiological saline."}, "[8]": {"details": "compared with the disodium salt; cited from earlier work"}, "[9]": {"details": "Ecabet sodium-containing granules 0.5 g in saline intra-rectally 1 h before 25% acetic acid, intestine excised 2 h after acetic acid, mean ± s.e. of sum of scores (0-3) of 4 items"}, "[10]": {"details": "Fischer rats 3 weeks after TNBS 50 mg/kg, granules 0.5 g intra-rectally 30 min before 25% acetic acid, 2 h after acetic acid, P < 0.05 vs saline"}},
  "note": "“Also recorded” adds a separate entry of the source. Where a name gives a salt, the structure may show the parent alone.",
  "data": [
    {"smiles": "CC(C)c1cc2c(cc1S(=O)(=O)O)[C@@]1(C)CCC[C@@](C)(C(=O)O)[C@@H]1CC2", "note": "[Ecabet sodium, (+)-(1R,4aS,10aR)-1,2,3,4,4a,9,10,10a-octahydro-1,4a-dimethyl-7-(1-methylethyl)-6-sulfo-1-phenanthrenecarboxylic acid 6-sodium salt pentahydrate]", "values": [
      {"measurement": "Inflammation, Matts Grade, after the administration", "setting": "[1]; Experiment 5, person, granules 1.5 g in saline 20 ml rectally twice a day, Matts Grade 3 before", "result": "Grade 2"},
      {"measurement": "Area of inflammation after the administration", "setting": "[1]; Experiment 5, person, granules 1.5 g rectally twice a day", "result": "decreased; also recorded: reduced"},
      {"measurement": "inflammation of the intestine tissue at the lesion (endoscope)", "setting": "[1]; Experiment 5, 11 days after the start of the administration", "result": "remarkably improved"},
      {"measurement": "ulcer at the rectum after the administration (endoscope)", "setting": "[1]; Experiment 6, person, granules 1.5 g in saline 20 ml rectally twice a day, 18 days, intractable ulcer before", "result": "turned into a red scar; also recorded: Improvement into a red"},
      {"measurement": "inflammation condition after the administration", "setting": "[1]; Experiment 7, person, granules 1.5 g in saline 20 ml rectally twice a day, mild to moderate inflammation before", "result": "only a slight erythema was remained; also recorded: Improvement into a slight"},
      {"measurement": "inflammation of the lesion (endoscope)", "setting": "[1]; Experiment 7, 12 days after the start of the administration", "result": "almost disappeared"},
      {"measurement": "ileum pouchitis and ulcer outcome", "setting": "[2]", "result": "cured without any cicatricial stenosis"},
      {"measurement": "injury of the intestinal mucosa (endoscope)", "setting": "[3]", "result": "disappeared"},
      {"measurement": "Degree of Histological Injury", "setting": "[4]; [9]", "result": "2.3 ± 0.4"},
      {"measurement": "Degree of Macroscopic Injury", "setting": "[4]; [9]", "result": "1.3 ± 0.2"},
      {"measurement": "intestinal mucosal injury induced by acetic acid (observation)", "setting": "[4]; versus physiological saline-treated rats (injury broadly observed)", "result": "hardly observed"},
      {"measurement": "acute hemorrhagic rectal ulcer outcome", "setting": "[5]; Experiment 8, person, granules 1.5 g in water through the anus twice a day for about 1.5 month", "result": "cured without any cicatricial stenosis"},
      {"measurement": "acute hemorrhagic rectal ulcer outcome", "setting": "[5]; Experiment 9, person, granules 1.5 g in water through the anus twice a day for about 2.5 months", "result": "cured without any cicatricial stenosis"},
      {"measurement": "acute hemorrhagic rectal ulcer outcome", "setting": "[5]; Experiment 10, person, granules 1.5 g in water through the anus twice a day for about 1 month", "result": "cured without any cicatricial stenosis"},
      {"measurement": "ulcerative lesion in the endoscopic finding", "setting": "[6]; 2 weeks after the start of the administration", "result": "remarkably improved"},
      {"measurement": "recrudescence", "setting": "[6]; 7 months after the start of the administration", "result": "has not been observed"},
      {"measurement": "pain and melena", "setting": "[6]; granules 1.5 g orally twice a day plus 1.5 g through artificial anus twice a day, in a several days", "result": "disappeared"},
      {"measurement": "Degree of Histological Injury", "setting": "[7]; [10]", "result": "4.6 ± 0.4"},
      {"measurement": "Degree of Macroscopic Injury", "setting": "[7]; [10]", "result": "3.9 ± 0.3"},
      {"measurement": "intestinal mucosal injury (observation)", "setting": "[7]; TNBS-enteritis Fischer rats, versus physiological saline-treated rats", "result": "effectively inhibited"}
    ]},
    {"smiles": "CC(C)c1cc2c(cc1S(=O)(=O)[O-])[C@@]1(C)CCC[C@@](C)(C(=O)O)[C@@H]1CC2.[Na+]", "note": "[Sulfodehydroabietic acid monosodium salt]", "values": [
      {"measurement": "hygroscopicity", "setting": "[8]", "result": "less hygroscopic"},
      {"measurement": "stability", "setting": "[8]", "result": "more stable"}
    ]}
  ]
}
